Laboratory results reported in patent US8389523B2, “Substituted quinoxaline and an agrochemical composition thereof” (Kumiai Chemical Industry Co., Ltd., priority 2007, dated 2013).

Columns and labels:
Assay type in all cases: in vivo
Set-up in all cases: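 grade 0 to 5 of growth suppression where 5 is 90% or more and 0 below 10%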
Amaranthus viridis L. [1] = assay: Herbicidal effects in upland field foliar treatment (Test Example 3); conditions: 1000 g of the active ingredient per hectare, 14th day after the treatment, wettable powder, criteria of Table 138
Method in brief: (§1)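 Weeds were sown in upland field soil and grown two weeks in a greenhouse before a foliar spray over the whole plant. Wettable powder was diluted in water and applied at 1000 L/ha, delivering 1000 g active ingredient/ha. Herbicidal effect was scored against set rating criteria 14 days after treatment.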

[2] = tested on: Abutilon theophrasti medicus; assay: as above; conditions: 1000 g of the active ingredient per hectare, 14th day after the treatment, wettable powder, criteria of Table 138
Method in brief: as §1

[3] = tested on: Echinochloa crus-galli (L.) P. Beauv. var. crus-galli; assay: as above; conditions: 1000 g of the active ingredient per hectare, 14th day after the treatment, wettable powder, criteria of Table 138
Method in brief: as §1

[4] = tested on: Scirpus juncoides Roxb. var. ohwianus. T. Koyama; assay: Herbicidal effects in paddy field soil treatment (Test Example 1); conditions: paddy field soil treatment; 1000 g of the active ingredient per hectare; wettable powder added dropwise on water surface; 21st day after treatment
Method in brief: (§2)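 Weed seeds were sown into puddled, leveled paddy soil in pots and flooded to 3 cm water depth. One day later the diluted wettable powder formulation was dropped onto the water surface at 1000 g active ingredient per hectare. Herbicidal effect was scored on day 21 after greenhouse growth.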

[5] = tested on: Echinochloa oryzicola Vasing; assay: as above; conditions: paddy field soil treatment; 1000 g of the active ingredient per hectare; wettable powder added dropwise on water surface; 21st day after treatment
Method in brief: as §2

[6] = tested on: Monochoria vaginalis (Burm. f.) Presl var. plantaginea (Roxb.) Solms-Laub.; assay: as above; conditions: paddy field soil treatment; 1000 g of the active ingredient per hectare; wettable powder added dropwise on water surface; 21st day after treatment
Method in brief: as §2

Amaranthus viridis L. [7] = assay: Herbicidal effects in upland field soil treatment (Test Example 2); conditions: 1000 g active ingredient per hectare, 21st day after treatment, criteria of Table 138
Method in brief: (§3)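 Pre-emergence soil application: seeds sown in upland field soil, covered, then wettable powder diluted in water sprayed on the soil surface at 1000 g active ingredient/ha in 1000 L/ha. Plants grown in greenhouse; herbicidal effect scored on a rating scale 21 days after treatment.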

[8] = tested on: Abutilon theophrasti medicus; assay: as above; conditions: 1000 g active ingredient per hectare, 21st day after treatment, criteria of Table 138
Method in brief: as §3

COc1ccc(-n2c(=O)c(C(=O)C3=C(O)CCCC3=O)nc3ccc(Cl)cc32)cc1 [II-196]
4: Herbicidal effects index, Echinochloa oryzicola Vasing [5] | herbicidal effect (index) on Abutilon theophrasti medicus [8]
5: herbicidal effects on Amaranthus viridis L. (Amaranthus viridis L. [1]) | herbicidal effects on Abutilon theophrasti medicus [2] | herbicidal effects on Echinochloa crus-galli (L.) P. Beauv. var. crus-galli [3] | Herbicidal effects index, Scirpus juncoides Roxb. var. ohwianus. T. Koyama [4] | Herbicidal effects index, Monochoria vaginalis (Burm. f.) Presl var. plantaginea (Roxb.) Solms-Laub. [6] | herbicidal effect (index) on Amaranthus viridis L. (Amaranthus viridis L. [7])

O=C1CCCC(O)=C1C(=O)c1nc2ccccc2n(-c2ccc(OCC3CC3)cc2)c1=O [II-208]
4: herbicidal effects on Echinochloa crus-galli (L.) P. Beauv. var. crus-galli [3]
5: herbicidal effects on Amaranthus viridis L. (Amaranthus viridis L. [1]) | herbicidal effects on Abutilon theophrasti medicus [2] | Herbicidal effects index, Scirpus juncoides Roxb. var. ohwianus. T. Koyama [4] | Herbicidal effects index, Echinochloa oryzicola Vasing [5] | Herbicidal effects index, Monochoria vaginalis (Burm. f.) Presl var. plantaginea (Roxb.) Solms-Laub. [6] | herbicidal effect (index) on Amaranthus viridis L. (Amaranthus viridis L. [7]) | herbicidal effect (index) on Abutilon theophrasti medicus [8]

Cc1ccc(-n2c(=O)c(C(=O)C3=C(O)CCCC3=O)nc3ccccc32)cc1C [II-211]
5: herbicidal effects on Amaranthus viridis L. (Amaranthus viridis L. [1]) | herbicidal effects on Abutilon theophrasti medicus [2] | herbicidal effects on Echinochloa crus-galli (L.) P. Beauv. var. crus-galli [3] | Herbicidal effects index, Scirpus juncoides Roxb. var. ohwianus. T. Koyama [4] | Herbicidal effects index, Echinochloa oryzicola Vasing [5] | Herbicidal effects index, Monochoria vaginalis (Burm. f.) Presl var. plantaginea (Roxb.) Solms-Laub. [6] | herbicidal effect (index) on Amaranthus viridis L. (Amaranthus viridis L. [7]) | herbicidal effect (index) on Abutilon theophrasti medicus [8]

Cc1ccc(-n2c(=O)c(C(=O)C3=C(O)CCCC3=O)nc3ccccc32)c(F)c1 [II-212]
5: herbicidal effects on Amaranthus viridis L. (Amaranthus viridis L. [1]) | herbicidal effects on Abutilon theophrasti medicus [2] | herbicidal effects on Echinochloa crus-galli (L.) P. Beauv. var. crus-galli [3] | Herbicidal effects index, Scirpus juncoides Roxb. var. ohwianus. T. Koyama [4] | Herbicidal effects index, Echinochloa oryzicola Vasing [5] | Herbicidal effects index, Monochoria vaginalis (Burm. f.) Presl var. plantaginea (Roxb.) Solms-Laub. [6] | herbicidal effect (index) on Amaranthus viridis L. (Amaranthus viridis L. [7]) | herbicidal effect (index) on Abutilon theophrasti medicus [8]

Cc1ccc(-n2c(=O)c(C(=O)C3=C(O)CCCC3=O)nc3ccccc32)cc1F [II-213]
4: herbicidal effects on Echinochloa crus-galli (L.) P. Beauv. var. crus-galli [3]
5: herbicidal effects on Amaranthus viridis L. (Amaranthus viridis L. [1]) | herbicidal effects on Abutilon theophrasti medicus [2] | Herbicidal effects index, Scirpus juncoides Roxb. var. ohwianus. T. Koyama [4] | Herbicidal effects index, Echinochloa oryzicola Vasing [5] | Herbicidal effects index, Monochoria vaginalis (Burm. f.) Presl var. plantaginea (Roxb.) Solms-Laub. [6] | herbicidal effect (index) on Amaranthus viridis L. (Amaranthus viridis L. [7]) | herbicidal effect (index) on Abutilon theophrasti medicus [8]

Cc1ccc(-n2c(=O)c(C(=O)C3=C(O)CCCC3=O)nc3ccccc32)c(Cl)c1 [II-215]
5: herbicidal effects on Amaranthus viridis L. (Amaranthus viridis L. [1]) | herbicidal effects on Abutilon theophrasti medicus [2] | herbicidal effects on Echinochloa crus-galli (L.) P. Beauv. var. crus-galli [3] | Herbicidal effects index, Scirpus juncoides Roxb. var. ohwianus. T. Koyama [4] | Herbicidal effects index, Echinochloa oryzicola Vasing [5] | Herbicidal effects index, Monochoria vaginalis (Burm. f.) Presl var. plantaginea (Roxb.) Solms-Laub. [6] | herbicidal effect (index) on Amaranthus viridis L. (Amaranthus viridis L. [7]) | herbicidal effect (index) on Abutilon theophrasti medicus [8]

CCOc1cc(-n2c(=O)c(C(=O)C3=C(O)CCCC3=O)nc3ccccc32)ccc1OC [II-217]
4: herbicidal effects on Echinochloa crus-galli (L.) P. Beauv. var. crus-galli [3] | Herbicidal effects index, Echinochloa oryzicola Vasing [5]
5: herbicidal effects on Amaranthus viridis L. (Amaranthus viridis L. [1]) | herbicidal effects on Abutilon theophrasti medicus [2] | Herbicidal effects index, Scirpus juncoides Roxb. var. ohwianus. T. Koyama [4] | Herbicidal effects index, Monochoria vaginalis (Burm. f.) Presl var. plantaginea (Roxb.) Solms-Laub. [6] | herbicidal effect (index) on Amaranthus viridis L. (Amaranthus viridis L. [7]) | herbicidal effect (index) on Abutilon theophrasti medicus [8]

COc1ccc(-n2c(=O)c(C(=O)C3=C(O)CCCC3=O)nc3ccccc32)c(OC)c1OC [II-218]
4: herbicidal effects on Echinochloa crus-galli (L.) P. Beauv. var. crus-galli [3] | Herbicidal effects index, Echinochloa oryzicola Vasing [5]
5: herbicidal effects on Amaranthus viridis L. (Amaranthus viridis L. [1]) | herbicidal effects on Abutilon theophrasti medicus [2] | Herbicidal effects index, Scirpus juncoides Roxb. var. ohwianus. T. Koyama [4] | Herbicidal effects index, Monochoria vaginalis (Burm. f.) Presl var. plantaginea (Roxb.) Solms-Laub. [6] | herbicidal effect (index) on Amaranthus viridis L. (Amaranthus viridis L. [7]) | herbicidal effect (index) on Abutilon theophrasti medicus [8]

COc1cc(F)c(-n2c(=O)c(C(=O)C3=C(O)CCCC3=O)nc3ccccc32)cc1F [II-219]
5: herbicidal effects on Amaranthus viridis L. (Amaranthus viridis L. [1]) | herbicidal effects on Abutilon theophrasti medicus [2] | herbicidal effects on Echinochloa crus-galli (L.) P. Beauv. var. crus-galli [3] | Herbicidal effects index, Scirpus juncoides Roxb. var. ohwianus. T. Koyama [4] | Herbicidal effects index, Echinochloa oryzicola Vasing [5] | Herbicidal effects index, Monochoria vaginalis (Burm. f.) Presl var. plantaginea (Roxb.) Solms-Laub. [6] | herbicidal effect (index) on Amaranthus viridis L. (Amaranthus viridis L. [7]) | herbicidal effect (index) on Abutilon theophrasti medicus [8]

COc1c(F)cc(-n2c(=O)c(C(=O)C3=C(O)CCCC3=O)nc3ccccc32)cc1F [II-220]
5: herbicidal effects on Amaranthus viridis L. (Amaranthus viridis L. [1]) | herbicidal effects on Abutilon theophrasti medicus [2] | herbicidal effects on Echinochloa crus-galli (L.) P. Beauv. var. crus-galli [3] | Herbicidal effects index, Scirpus juncoides Roxb. var. ohwianus. T. Koyama [4] | Herbicidal effects index, Echinochloa oryzicola Vasing [5] | Herbicidal effects index, Monochoria vaginalis (Burm. f.) Presl var. plantaginea (Roxb.) Solms-Laub. [6] | herbicidal effect (index) on Amaranthus viridis L. (Amaranthus viridis L. [7]) | herbicidal effect (index) on Abutilon theophrasti medicus [8]

COc1c(Cl)cc(-n2c(=O)c(C(=O)C3=C(O)CCCC3=O)nc3ccccc32)cc1Cl [II-221]
5: herbicidal effects on Amaranthus viridis L. (Amaranthus viridis L. [1]) | herbicidal effects on Abutilon theophrasti medicus [2] | herbicidal effects on Echinochloa crus-galli (L.) P. Beauv. var. crus-galli [3] | Herbicidal effects index, Scirpus juncoides Roxb. var. ohwianus. T. Koyama [4] | Herbicidal effects index, Monochoria vaginalis (Burm. f.) Presl var. plantaginea (Roxb.) Solms-Laub. [6] | herbicidal effect (index) on Amaranthus viridis L. (Amaranthus viridis L. [7])
4: Herbicidal effects index, Echinochloa oryzicola Vasing [5] | herbicidal effect (index) on Abutilon theophrasti medicus [8]

O=C1CCCC(O)=C1C(=O)c1nc2ccccc2n(-c2ccc3c(c2)CCC3)c1=O [II-222]
5: herbicidal effects on Amaranthus viridis L. (Amaranthus viridis L. [1]) | herbicidal effects on Abutilon theophrasti medicus [2] | herbicidal effects on Echinochloa crus-galli (L.) P. Beauv. var. crus-galli [3] | Herbicidal effects index, Scirpus juncoides Roxb. var. ohwianus. T. Koyama [4] | Herbicidal effects index, Echinochloa oryzicola Vasing [5] | Herbicidal effects index, Monochoria vaginalis (Burm. f.) Presl var. plantaginea (Roxb.) Solms-Laub. [6] | herbicidal effect (index) on Amaranthus viridis L. (Amaranthus viridis L. [7]) | herbicidal effect (index) on Abutilon theophrasti medicus [8]

O=C1CCCC(O)=C1C(=O)c1nc2ccccc2n(-c2ccc3c(c2)CCCC3)c1=O [II-223]
4: herbicidal effect (index) on Abutilon theophrasti medicus [8]
5: herbicidal effects on Amaranthus viridis L. (Amaranthus viridis L. [1]) | herbicidal effects on Abutilon theophrasti medicus [2] | herbicidal effects on Echinochloa crus-galli (L.) P. Beauv. var. crus-galli [3] | Herbicidal effects index, Scirpus juncoides Roxb. var. ohwianus. T. Koyama [4] | Herbicidal effects index, Echinochloa oryzicola Vasing [5] | Herbicidal effects index, Monochoria vaginalis (Burm. f.) Presl var. plantaginea (Roxb.) Solms-Laub. [6] | herbicidal effect (index) on Amaranthus viridis L. (Amaranthus viridis L. [7])

O=C1CCCC(O)=C1C(=O)c1nc2ccccc2n(-c2ccc3c(c2)COC3)c1=O [II-224]
5: herbicidal effects on Amaranthus viridis L. (Amaranthus viridis L. [1]) | herbicidal effects on Abutilon theophrasti medicus [2] | herbicidal effects on Echinochloa crus-galli (L.) P. Beauv. var. crus-galli [3] | Herbicidal effects index, Scirpus juncoides Roxb. var. ohwianus. T. Koyama [4] | Herbicidal effects index, Monochoria vaginalis (Burm. f.) Presl var. plantaginea (Roxb.) Solms-Laub. [6] | herbicidal effect (index) on Amaranthus viridis L. (Amaranthus viridis L. [7]) | herbicidal effect (index) on Abutilon theophrasti medicus [8]
4: Herbicidal effects index, Echinochloa oryzicola Vasing [5]

O=C1CCCC(O)=C1C(=O)c1nc2ccc(F)cc2n(-c2ccc3c(c2)OCO3)c1=O [II-225]
5: herbicidal effects on Amaranthus viridis L. (Amaranthus viridis L. [1]) | herbicidal effects on Abutilon theophrasti medicus [2] | herbicidal effects on Echinochloa crus-galli (L.) P. Beauv. var. crus-galli [3] | Herbicidal effects index, Scirpus juncoides Roxb. var. ohwianus. T. Koyama [4] | Herbicidal effects index, Echinochloa oryzicola Vasing [5] | Herbicidal effects index, Monochoria vaginalis (Burm. f.) Presl var. plantaginea (Roxb.) Solms-Laub. [6] | herbicidal effect (index) on Amaranthus viridis L. (Amaranthus viridis L. [7]) | herbicidal effect (index) on Abutilon theophrasti medicus [8]

O=C1CCCC(O)=C1C(=O)c1nc2ccccc2n(-c2cccc3c2OCCO3)c1=O [II-226]
5: herbicidal effects on Amaranthus viridis L. (Amaranthus viridis L. [1]) | herbicidal effects on Abutilon theophrasti medicus [2] | herbicidal effects on Echinochloa crus-galli (L.) P. Beauv. var. crus-galli [3] | Herbicidal effects index, Scirpus juncoides Roxb. var. ohwianus. T. Koyama [4] | Herbicidal effects index, Echinochloa oryzicola Vasing [5] | Herbicidal effects index, Monochoria vaginalis (Burm. f.) Presl var. plantaginea (Roxb.) Solms-Laub. [6] | herbicidal effect (index) on Amaranthus viridis L. (Amaranthus viridis L. [7]) | herbicidal effect (index) on Abutilon theophrasti medicus [8]

CC1(C)CCC(=O)C(C(=O)c2nc3ccccc3n(-c3ccc4c(c3)OCCO4)c2=O)=C1O [II-227]
5: herbicidal effects on Amaranthus viridis L. (Amaranthus viridis L. [1]) | herbicidal effects on Echinochloa crus-galli (L.) P. Beauv. var. crus-galli [3] | Herbicidal effects index, Scirpus juncoides Roxb. var. ohwianus. T. Koyama [4] | Herbicidal effects index, Echinochloa oryzicola Vasing [5] | Herbicidal effects index, Monochoria vaginalis (Burm. f.) Presl var. plantaginea (Roxb.) Solms-Laub. [6] | herbicidal effect (index) on Amaranthus viridis L. (Amaranthus viridis L. [7]) | herbicidal effect (index) on Abutilon theophrasti medicus [8]
4: herbicidal effects on Abutilon theophrasti medicus [2]

CC1(C)CC(=O)C(C(=O)c2nc3ccccc3n(-c3ccc4c(c3)OCCO4)c2=O)=C(O)C1 [II-228]
5: herbicidal effects on Amaranthus viridis L. (Amaranthus viridis L. [1]) | herbicidal effects on Abutilon theophrasti medicus [2] | herbicidal effects on Echinochloa crus-galli (L.) P. Beauv. var. crus-galli [3] | Herbicidal effects index, Scirpus juncoides Roxb. var. ohwianus. T. Koyama [4] | Herbicidal effects index, Echinochloa oryzicola Vasing [5] | Herbicidal effects index, Monochoria vaginalis (Burm. f.) Presl var. plantaginea (Roxb.) Solms-Laub. [6] | herbicidal effect (index) on Amaranthus viridis L. (Amaranthus viridis L. [7]) | herbicidal effect (index) on Abutilon theophrasti medicus [8]
